Experiments:
human KHK-C = human KHK-C (Homo sapiens (Human), UniProt P50053); test: KHK Biochemical Assay (IC50), ADP-Glo, KHK-C; details: ADP-Glo; average of at least two separate assays
Procedure, shortened: (§1)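 Luminescent ADP-Glo read-out of ADP made by His-tagged KHK (BL21 (DE3) expression, Ni-NTA). Enzyme and compound sat together 30 min before ATP/fructose addition, then reacted 4 h at RT in Hepes pH 7.4 buffer with KCl, MgCl2, Triton-X. Quench 1 h, detection 1 h.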

[1] = molecular target: KHK-C expressed in NRK-52E cells (Homo sapiens (Human), UniProt P50053); test: KHK-C Cell-based Assay (EC50), NRK CTG, fructose-mediated ATP-depletion
human KHK-A = human KHK-A (Homo sapiens (Human), UniProt P50053); test: KHK Biochemical Assay (IC50), ADP-Glo, KHK-A; details: ADP-Glo; average of at least two separate assays
Procedure, shortened: as §1

Sequence of human KHK-A (P50053 other isoform, or with tags, fused parts or gaps): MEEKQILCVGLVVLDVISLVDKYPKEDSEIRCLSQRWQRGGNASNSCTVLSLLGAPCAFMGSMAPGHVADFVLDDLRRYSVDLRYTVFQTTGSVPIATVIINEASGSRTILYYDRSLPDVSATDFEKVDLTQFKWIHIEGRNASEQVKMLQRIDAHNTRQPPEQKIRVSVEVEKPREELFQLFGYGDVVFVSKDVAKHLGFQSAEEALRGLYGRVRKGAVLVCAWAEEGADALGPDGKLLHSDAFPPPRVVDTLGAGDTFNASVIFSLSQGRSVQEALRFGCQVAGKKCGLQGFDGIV
Sequence of human KHK-C (P50053 whole entry): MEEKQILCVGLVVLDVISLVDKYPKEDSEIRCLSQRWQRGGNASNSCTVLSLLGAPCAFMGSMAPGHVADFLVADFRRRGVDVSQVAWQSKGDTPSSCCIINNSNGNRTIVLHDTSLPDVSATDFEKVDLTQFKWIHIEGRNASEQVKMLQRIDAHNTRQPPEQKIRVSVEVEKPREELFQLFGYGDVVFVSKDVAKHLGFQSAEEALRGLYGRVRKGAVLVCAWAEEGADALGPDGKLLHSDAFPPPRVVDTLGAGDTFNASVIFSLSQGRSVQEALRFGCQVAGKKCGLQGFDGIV
Sequence of KHK-C expressed in NRK-52E cells (P50053 whole entry): as above

| SMILES | IC50 (human KHK-C) | EC50 [1] | IC50 (human KHK-A) |
| --- | --- | --- | --- |
| C[C@H]1CCN1c1nc2c(c(-c3ccc(C(N)=O)c4ccccc34)n1)CCC2 [Example 144, (S)-4-(2-(2-methylazetidin-1-yl)-6,7-dihydro-5H-cyclopenta[d]pyrimidin-4-yl)-1-naphthamide] | 2400 nM | 2440 nM | 1690 nM |
| C[C@H]1CCN1c1nc2c(c(-c3ccc4c(c3)C3(CCC4)CC3C(=O)O)n1)CCC2 (stereo partly drawn) [Example 148, 7′-(2-((S)-2-methylazetidin-1-yl)-6,7-dihydro-5H-cyclopenta[d]pyrimidin-4-yl)-3′,4′-dihydro-2′H-spiro[cyclopropane-1,1′-naphthalene]-2-carboxylic acid] | 59.9 nM | 653 nM | 84 nM |
| C[C@H]1CCN1c1nc2c(c(-c3cc4cccc(C(N)=O)c4[nH]3)n1)CCC2 [Example 154, (S)-2-(2-(2-methylazetidin-1-yl)-6,7-dihydro-5H-cyclopenta[d]pyrimidin-4-yl)-1H-indole-7-carboxamide] | 90.4 nM | 34 nM | 45.8 nM |
| C[C@H]1CCN1c1nc(-c2ccc(C(N)=O)cc2)c2c(n1)C(F)(F)CCC2 [Example 157, (S)-4-(8,8-difluoro-2-(2-methylazetidin-1-yl)-5,6,7,8-tetrahydroquinazolin-4-yl)benzamide] | 211 nM | 291 nM | 125 nM |
| C[C@H]1[C@H](O)CN1c1nc(-c2ccc(C(N)=O)cc2)c2c(n1)C(F)(F)CCC2 [Example 158] | 314 nM | 1120 nM | 217 nM |
| C[C@H]1[C@H](O)CN1c1nc2c(c(-c3ccc(-c4ncc[nH]4)cc3)n1)CCC2 [Example 193, (2S,3R)-1-[4-[4-(1H-imidazol-2-yl)phenyl]-6,7-dihydro-5H-cyclopenta[d]pyrimidin-2-yl]-2-methyl-azetidin-3-ol] | 97.8 nM | 412 nM | 73.4 nM |
| C[C@H]1[C@H](F)CN1c1nc2c(c(-c3ccc(C(N)=O)cc3)n1)CCC2 [Example 200, 4-[2-[(2S,3R)-3-fluoro-2-methyl-azetidin-1-yl]-6,7-dihydro-5H-cyclopenta[d]pyrimidin-4-yl]benzamide] | 10.9 nM | 49.3 nM | 14.9 nM |
| C[C@H]1[C@H](F)CN1c1nc2c(c(-c3ccc(CN)cc3)n1)CCC2 [Example 201, [4-[2-[(2S,3R)-3-fluoro-2-methyl-azetidin-1-yl]-6,7-dihydro-5H-cyclopenta[d]pyrimidin-4-yl]phenyl]methanamine] | 1.7 nM | 130 nM | 2.9 nM |
| C[C@H]1[C@H](O)CN1c1nc2c(c(-c3ccc(CN)cc3)n1)CCC2 [Example 202, (2S,3R)-1-[4-[4-(aminomethyl)phenyl]-6,7-dihydro-5H-cyclopenta[d]pyrimidin-2-yl]-2-methyl-azetidin-3-ol] | 7.7 nM | 111 nM | 9.8 nM |
| C[C@H]1C[C@H](C)N1c1nc2c(c(-c3cccc(S(N)(=O)=O)c3)n1)CCC2 [Example 208, 3-[2-[(28,48)-2,4-dimethylazetidin-1-yl]-6,7-dihydro-5H-cyclopenta[d]pyrimidin-4-yl]benzenesulfonamide] | 46.6 nM | 36.4 nM | 36.7 nM |
| C[C@H]1[C@H](F)CN1c1nc2c(c(-c3cccc(S(N)(=O)=O)c3)n1)CCC2 [Example 210] | 19.7 nM | 38.2 nM | 17.6 nM |
| C[C@H]1CCN1c1nc(-c2ccccc2)c2c(ncn2C)n1 [Example 211, 7-methyl-2-[(2S)-2-methylazetidin-1-yl]-6-phenyl-purine] | 4760 nM | > 50000 nM | 7310 nM |
| C[C@H]1CCN1c1nc2c(c(-c3cnc(C(C)(C)O)s3)n1)CCC2 [Example 213, 2-[5-[2-[(2S)-2-methylazetidin-1-yl]-6,7-dihydro-5H-cyclopenta[d]pyrimidin-4-yl]thiazol-2-yl]propan-2-ol] | 33.3 nM | 52.5 nM | 52.6 nM |

Next, values leading:

| IC50 (human KHK-C) | EC50 [1] | IC50 (human KHK-A) | SMILES |
| --- | --- | --- | --- |
| 30.6 nM | 43.3 nM | 21.4 nM | C[C@H]1CCN1c1nc2c(c(-c3ccc4nc(N)ccc4c3)n1)CCC2 [Example 143, (S)-6-(2-(2-methylazetidin-1-yl)-6,7-dihydro-5H-cyclopenta[d]pyrimidin-4-yl)quinolin-2-amine] |
| 6.7 nM | 18.8 nM | 33.2 nM | C[C@H]1CCN1c1nc2c(c(-c3ccc4c(c3)OCCNC4=O)n1)CCC2 [Example 149, (S)-8-(2-(2-methylazetidin-1-yl)-6,7-dihydro-5H-cyclopenta[d]pyrimidin-4-yl)-3,4-dihydrobenzo[f][1,4]oxazepin-5(2H)-one] |
| 33.1 nM | 73.2 nM | 32.2 nM | C[C@H]1CCN1c1nc2c(c(-c3ccc4c(c3)C(=O)NCCO4)n1)CCC2 [Example 150, (S)-7-(2-(2-methylazetidin-1-yl)-6,7-dihydro-5H-cyclopenta[d]pyrimidin-4-yl)-3,4-dihydrobenzo[f][1,4]oxazepin-5(2H)-one] |
| 3890 nM | 1360 nM | 4980 nM | C[C@H]1CCN1c1nc2c(c(-c3cc4ccccc4[nH]3)n1)CCC2 [Example 151, (S)-4-(1H-indol-2-yl)-2-(2-methylazetidin-1-yl)-6,7-dihydro-5H-cyclopenta[d]pyrimidine] |
| 94 nM | 200 nM | 63.6 nM | C[C@H]1CCN1c1nc2c(c(-c3cc4cc(C(N)=O)ccc4[nH]3)n1)CCC2 [Example 152, (S)-2-(2-(2-methylazetidin-1-yl)-6,7-dihydro-5H-cyclopenta[d]pyrimidin-4-yl)-1H-indole-5-carboxamide] |
| 66.6 nM | 4000 nM | 186 nM | C[C@H]1CCN1c1nc2c(c(-c3cc4cc(C(=O)O)ccc4[nH]3)n1)CCC2 [Example 153, (S)-2-(2-(2-methylazetidin-1-yl)-6,7-dihydro-5H-cyclopenta[d]pyrimidin-4-yl)-1H-indole-5-carboxylic acid] |
| 99.5 nM | 4790 nM | 232 nM | C[C@H]1CCN1c1nc2c(c(-c3cc4c(C(=O)O)cccc4[nH]3)n1)CCC2 [Example 155, (S)-2-(2-(2-methylazetidin-1-yl)-6,7-dihydro-5H-cyclopenta[d]pyrimidin-4-yl)-1H-indole-4-carboxylic acid] |
| 82 nM | 145 nM | 99.9 nM | C[C@H]1CCN1c1nc2c(c(-c3cc4c(C(N)=O)cccc4[nH]3)n1)CCC2 [Example 156, (S)-2-(2-(2-methylazetidin-1-yl)-6,7-dihydro-5H-cyclopenta[d]pyrimidin-4-yl)-1H-indole-4-carboxamide] |
| 49.8 nM | 249 nM | 66.5 nM | C[C@H]1CCN1c1nc2c(c(-c3ccc4nc(O)ccc4c3)n1)CCC2 [Example 175, (S)-6-(2-(2-methylazetidin-1-yl)-6,7-dihydro-5H-cyclopenta[d]pyrimidin-4-yl)quinolin-2-ol] |
| 210 nM | 275 nM | 152 nM | C[C@H]1CCN1c1nc2c(c(-c3ccc4[nH]c(C(N)=O)cc4c3)n1)CCC2 [Example 184, 5-[2-[(2S)-2-methylazetidin-1-yl]-6,7-dihydro-5H-cyclopenta[d]pyrimidin-4-yl]-1H-indole-2-carboxamide] |
| 48.8 nM | 83.9 nM | 60.6 nM | C[C@H]1CCN1c1nc2c(c(-c3ccc(-c4ncc[nH]4)cc3)n1)CCC2 [Example 185, 4-[4-(1H-imidazol-2-yl)phenyl]-2-[(2S)-2-methylazetidin-1-yl]-6,7-dihydro-5H-cyclopenta[d]pyrimidine] |
| 66.9 nM | 143 nM | 78.2 nM | C[C@H]1CCN1c1nc2c(c(-c3ccc4c(c3)CN(C)C4=O)n1)CCC2 [Example 186, 2-methyl-5-[2-[(2S)-2-methylazetidin-1-yl]-6,7-dihydro-5H-cyclopenta[d]pyrimidin-4-yl]isoindolin-1-one] |
| 22.4 nM | 91.6 nM | 33.3 nM | C[C@H]1CCN1c1nc2c(c(-c3ccc4c(c3)CNC4=O)n1)CCC2 [Example 187, 5-[2-[(2S)-2-methylazetidin-1-yl]-6,7-dihydro-5H-cyclopenta[d]pyrimidin-4-yl]isoindolin-1-one] |
| 61.7 nM | 112 nM | 81.6 nM | C[C@H]1CCN1c1nc2c(c(-c3ccc(S(N)(=O)=O)cc3)n1)CCC2 [Example 189, 4-[2-[(2S)-2-methylazetidin-1-yl]-6,7-dihydro-5H-cyclopenta[d]pyrimidin-4-yl]benzenesulfonamide] |
| 40.8 nM | 28.1 nM | 48.7 nM | C[C@H]1CCN1c1nc2c(c(-c3cccc(C(C)(C)N)c3)n1)CCC2 [Example 190, 2-[3-[2-[(2S)-2-methylazetidin-1-yl]-6,7-dihydro-5H-cyclopenta[d]pyrimidin-4-yl]phenyl]propan-2-amine] |
| 86.7 nM | 367 nM | 136 nM | C[C@H]1[C@H](O)CN1c1nc2c(c(-c3ccc4c(c3)CNC4=O)n1)CCC2 [Example 196, 5-[2-[(2S,3R)-3-hydroxy-2-methyl-azetidin-1-yl]-6,7-dihydro-5H-cyclopenta[d]pyrimidin-4-yl]isoindolin-1-one] |
| 37.2 nM | 109 nM | 118 nM | C[C@H]1[C@H](O)CN1c1nc2c(c(-c3ccc4c(c3)C(=O)N(C)C4)n1)CCC2 [Example 204] |
| 28.2 nM | 55.8 nM | 23.2 nM | C[C@H]1CCN1c1nc2c(c(-c3ccc4c(c3)C(=O)NC4)n1)CCC2 [Example 207] |

Reference: patent US12410160B2 (Gilead Sciences, Inc., priority 2021, dated 2025)
